Laboratory results published in ChEMBL document CHEMBL3885861, “Open TG-GATES”.

Species on record: Rattus norvegicus
Assay: Open TG-GATES - Regimen: Daily Repeat
Type: toxicity, organism-based, Sprague-Dawley
Parameters: regimen Daily Repeat, gender Male, age 6 weeks
Conditions: in vivo, iv, 2000 mg/kg, route intravenous injection, dose level High; for APTT / Bas / Eos / Fbg / Hb / Ht / Lym / MCH / MCHC / MCV / Mono / Neu / PT / Plat / RBC / Ret / WBC: tissue Blood; for KIDNEY_L / KIDNEY_R / KIDNEY_TOTAL: tissue Kidney; for LIVER: tissue Liver; for ALP / ALT / AST / BUN / CRE / Ca / Cl / DBIL / GLC / IP / K / LDH / Na / PL / RALB / TBIL / TC / TG / TP / gamma-GTP: tissue Plasma

CC(=O)OCC1=C(C(=O)O)N2C(=O)[C@@H](NC(=O)Cc3cccs3)[C@H]2SC1 [CEPHALOTHIN]
TERMINAL_BW (72 h, time 3 day): 233 g | APTT (72 h, time 3 day): 22.3 s | Bas (72 h, time 3 day): 0% | Eos (72 h, time 3 day): 1.2% | Fbg (72 h, time 3 day): 311.4 mg/dL | Hb (72 h, time 3 day): 13.7 g/dL | Ht (72 h, time 3 day): 38.7% | Lym (72 h, time 3 day): 87.2% | MCH (72 h, time 3 day): 21.3 pg | MCHC (72 h, time 3 day): 35.3% | MCV (72 h, time 3 day): 60.3 fL | Mono (72 h, time 3 day): 2.2% | Neu (72 h, time 3 day): 9% | PT (72 h, time 3 day): 16.2 s | Plat (72 h, time 3 day): 128.7 x10_4/uL | RBC (72 h, time 3 day): 642 x10_4/ul | Ret (72 h, time 3 day): 4.9% | WBC (72 h, time 3 day): 71.5 x10_2/uL | KIDNEY_L (72 h, time 3 day): 1 g | KIDNEY_R (72 h, time 3 day): 1 g | KIDNEY_TOTAL (72 h, time 3 day): 2.1 g | LIVER (72 h, time 3 day): 10.2 g | ALP (72 h, time 3 day): 1558.6 IU/L | ALT (72 h, time 3 day): 43 IU/L | AST (72 h, time 3 day): 72.2 IU/L | BUN (72 h, time 3 day): 17.6 mg/dL | CRE (72 h, time 3 day): 0.2 mg/dL | Ca (72 h, time 3 day): 10.4 mg/dL | Cl (72 h, time 3 day): 106 meq/L | DBIL (72 h, time 3 day): 0.004 mg/dL | GLC (72 h, time 3 day): 173.6 mg/dL | IP (72 h, time 3 day): 7.5 mg/dL | K (72 h, time 3 day): 4.4 meq/L | LDH (72 h, time 3 day): 152.4 IU/L | Na (72 h, time 3 day): 141.6 meq/L | PL (72 h, time 3 day): 132.8 mg/dL | RALB (72 h, time 3 day): 3.1 g/dL | TBIL (72 h, time 3 day): 0.03 mg/dL | TC (72 h, time 3 day): 80.6 mg/dL | TG (72 h, time 3 day): 40.4 mg/dL | TP (72 h, time 3 day): 5.5 g/dL | gamma-GTP (72 h, time 3 day): 1.8 IU/L | TERMINAL_BW ([…], time 7 day): 255 g | TERMINAL_BW ([…], time 14 day): 294.7 g | TERMINAL_BW ([…], time 28 day): 341.3 g | APTT ([…], time 7 day): 22.8 s | Bas ([…], time 7 day): 0% | Eos ([…], time 7 day): 0.8% | Fbg ([…], time 7 day): 347.2 mg/dL | Hb ([…], time 7 day): 13.4 g/dL | Ht ([…], time 7 day): 38.1% | Lym ([…], time 7 day): 83.8% | MCH ([…], time 7 day): 20.8 pg | MCHC ([…], time 7 day): 35.1% | MCV ([…], time 7 day): 59.4 fL | Mono ([…], time 7 day): 2.4% | Neu ([…], time 7 day): 12.4% | PT ([…], time 7 day): 16.7 s | Plat ([…], time 7 day): 132.5 x10_4/uL | RBC ([…], time 7 day): 642.8 x10_4/ul | Ret ([…], time 7 day): 6.3% | WBC ([…], time 7 day): 96.8 x10_2/uL | APTT ([…], time 14 day): 23.6 s | Bas ([…], time 14 day): 0% | Eos ([…], time 14 day): 1% | Fbg ([…], time 14 day): 269.2 mg/dL | Hb ([…], time 14 day): 14.4 g/dL | Ht ([…], time 14 day): 40.1% | Lym ([…], time 14 day): 84.6% | MCH ([…], time 14 day): 20.7 pg | MCHC ([…], time 14 day): 35.9% | MCV ([…], time 14 day): 57.5 fL | Mono ([…], time 14 day): 2% | Neu ([…], time 14 day): 12% | PT ([…], time 14 day): 16 s | Plat ([…], time 14 day): 117.3 x10_4/uL | RBC ([…], time 14 day): 695.2 x10_4/ul | Ret ([…], time 14 day): 5% | WBC ([…], time 14 day): 118.2 x10_2/uL | APTT ([…], time 28 day): 24.6 s | Bas ([…], time 28 day): 0% | Eos ([…], time 28 day): 1.6% | Fbg ([…], time 28 day): 283.8 mg/dL | Hb ([…], time 28 day): 15.6 g/dL | Ht ([…], time 28 day): 42.2% | Lym ([…], time 28 day): 84.8% | MCH ([…], time 28 day): 19.6 pg | MCHC ([…], time 28 day): 37% | MCV ([…], time 28 day): 52.9 fL | Mono ([…], time 28 day): 2.4% | Neu ([…], time 28 day): 10.8% | PT ([…], time 28 day): 16.1 s | Plat ([…], time 28 day): 100.5 x10_4/uL | RBC ([…], time 28 day): 797.8 x10_4/ul | Ret ([…], time 28 day): 3.2% | WBC ([…], time 28 day): 103.9 x10_2/uL | KIDNEY_L ([…], time 7 day): 1.1 g | KIDNEY_R ([…], time 7 day): 1.1 g | KIDNEY_TOTAL ([…], time 7 day): 2.2 g | KIDNEY_L ([…], time 14 day): 1.2 g | KIDNEY_R ([…], time 14 day): 1.2 g | KIDNEY_TOTAL ([…], time 14 day): 2.4 g | KIDNEY_L ([…], time 28 day): 1.4 g | KIDNEY_R ([…], time 28 day): 1.4 g | KIDNEY_TOTAL ([…], time 28 day): 2.7 g | LIVER ([…], time 7 day): 12 g | LIVER ([…], time 14 day): 12.9 g | LIVER ([…], time 28 day): 13.8 g | ALP ([…], time 7 day): 1549.6 IU/L | ALT ([…], time 7 day): 42.4 IU/L | AST ([…], time 7 day): 71.2 IU/L | BUN ([…], time 7 day): 19.6 mg/dL | CRE ([…], time 7 day): 0.2 mg/dL | Ca ([…], time 7 day): 10.8 mg/dL | Cl ([…], time 7 day): 107.6 meq/L | DBIL ([…], time 7 day): 0 mg/dL | GLC ([…], time 7 day): 169.2 mg/dL | IP ([…], time 7 day): 7 mg/dL | K ([…], time 7 day): 4.5 meq/L | LDH ([…], time 7 day): 152.8 IU/L | Na ([…], time 7 day): 141.6 meq/L | PL ([…], time 7 day): 138.6 mg/dL | RALB ([…], time 7 day): 3 g/dL | TBIL ([…], time 7 day): 0.008 mg/dL | TC ([…], time 7 day): 69.8 mg/dL | TG ([…], time 7 day): 103.2 mg/dL | TP ([…], time 7 day): 5.6 g/dL | gamma-GTP ([…], time 7 day): 2 IU/L | ALP ([…], time 14 day): 1210 IU/L | ALT ([…], time 14 day): 40.6 IU/L | AST ([…], time 14 day): 72 IU/L | BUN ([…], time 14 day): 18.6 mg/dL | CRE ([…], time 14 day): 0.2 mg/dL | Ca ([…], time 14 day): 10.6 mg/dL | Cl ([…], time 14 day): 106.2 meq/L | DBIL ([…], time 14 day): 0 mg/dL | GLC ([…], time 14 day): 176.8 mg/dL | IP ([…], time 14 day): 6.3 mg/dL | K ([…], time 14 day): 4.3 meq/L | LDH ([…], time 14 day): 142.8 IU/L | Na ([…], time 14 day): 141.4 meq/L | PL ([…], time 14 day): 142.4 mg/dL | RALB ([…], time 14 day): 3.1 g/dL | TBIL ([…], time 14 day): 0.018 mg/dL | TC ([…], time 14 day): 73.6 mg/dL | TG ([…], time 14 day): 110.2 mg/dL | TP ([…], time 14 day): 5.8 g/dL | gamma-GTP ([…], time 14 day): 2.4 IU/L | ALP ([…], time 28 day): 899.6 IU/L | ALT ([…], time 28 day): 38 IU/L | AST ([…], time 28 day): 69.2 IU/L | BUN ([…], time 28 day): 16 mg/dL | CRE ([…], time 28 day): 0.2 mg/dL | Ca ([…], time 28 day): 10.4 mg/dL | Cl ([…], time 28 day): 106.2 meq/L | DBIL ([…], time 28 day): 0.002 mg/dL | GLC ([…], time 28 day): 166.8 mg/dL | IP ([…], time 28 day): 5.6 mg/dL | K ([…], time 28 day): 4.1 meq/L | LDH ([…], time 28 day): 105.2 IU/L | Na ([…], time 28 day): 142.6 meq/L | PL ([…], time 28 day): 129.8 mg/dL | RALB ([…], time 28 day): 3.2 g/dL | TBIL ([…], time 28 day): 0.034 mg/dL | TC ([…], time 28 day): 62.4 mg/dL | TG ([…], time 28 day): 93.8 mg/dL | TP ([…], time 28 day): 6.1 g/dL | gamma-GTP ([…], time 28 day): 1.8 IU/L
